The text below walks through data of ChEMBL document CHEMBL1151779, “Exploration of a fundamental substituent effect of alpha-ketoheterocycle enzyme inhibitors: Potent and selective inhibitors of fatty acid amide hydrolase” (Bioorg Med Chem Lett, 2008).

The nature of assay [1]: Selectivity ratio of IC50 for KIAA1363 to IC50 for rat FAAH.
For assay [2], the target named is T1, Neutral cholesterol ester hydrolase 1 (Homo sapiens, UniProt Q6PIU2).
T1 sequence (Q6PIU2 whole entry): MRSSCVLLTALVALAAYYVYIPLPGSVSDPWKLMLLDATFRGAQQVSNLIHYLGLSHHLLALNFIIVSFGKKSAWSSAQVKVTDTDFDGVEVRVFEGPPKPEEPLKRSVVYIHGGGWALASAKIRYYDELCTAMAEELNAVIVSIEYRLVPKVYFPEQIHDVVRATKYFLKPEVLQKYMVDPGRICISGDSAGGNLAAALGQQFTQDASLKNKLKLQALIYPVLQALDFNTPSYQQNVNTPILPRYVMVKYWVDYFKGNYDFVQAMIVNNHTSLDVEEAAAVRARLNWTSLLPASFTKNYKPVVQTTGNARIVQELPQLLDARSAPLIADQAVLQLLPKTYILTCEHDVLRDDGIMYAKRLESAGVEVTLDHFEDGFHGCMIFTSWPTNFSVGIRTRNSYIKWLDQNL
The experiment in a line: Inhibition of KIAA1363.

Assay [3] deals with T2, Fatty-acid amide hydrolase 1 (Rattus norvegicus, UniProt P97612).
T2 sequence (P97612 whole entry): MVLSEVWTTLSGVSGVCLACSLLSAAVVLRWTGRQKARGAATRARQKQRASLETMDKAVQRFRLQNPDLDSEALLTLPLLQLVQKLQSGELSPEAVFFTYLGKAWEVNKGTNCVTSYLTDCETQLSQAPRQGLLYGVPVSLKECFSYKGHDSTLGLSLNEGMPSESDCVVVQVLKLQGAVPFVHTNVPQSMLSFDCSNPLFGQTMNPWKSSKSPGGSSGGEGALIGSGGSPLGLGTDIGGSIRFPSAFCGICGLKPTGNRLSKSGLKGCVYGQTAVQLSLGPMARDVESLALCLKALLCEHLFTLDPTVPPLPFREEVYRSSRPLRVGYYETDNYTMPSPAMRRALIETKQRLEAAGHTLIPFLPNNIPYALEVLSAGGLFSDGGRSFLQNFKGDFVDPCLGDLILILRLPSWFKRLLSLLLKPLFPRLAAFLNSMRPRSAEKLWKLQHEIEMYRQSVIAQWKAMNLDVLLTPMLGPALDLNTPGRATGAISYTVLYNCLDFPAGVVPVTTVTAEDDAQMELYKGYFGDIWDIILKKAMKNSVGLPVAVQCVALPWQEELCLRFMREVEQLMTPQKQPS
The experiment in a line: Inhibition of rat FAAH.

Assay [4] is described as follows: Selectivity ratio of IC50 for TGH to IC50 for rat FAAH.
A further assay concerns the target T3, Liver carboxylesterase 1 (Homo sapiens, UniProt P23141).
T3 sequence (P23141 whole entry): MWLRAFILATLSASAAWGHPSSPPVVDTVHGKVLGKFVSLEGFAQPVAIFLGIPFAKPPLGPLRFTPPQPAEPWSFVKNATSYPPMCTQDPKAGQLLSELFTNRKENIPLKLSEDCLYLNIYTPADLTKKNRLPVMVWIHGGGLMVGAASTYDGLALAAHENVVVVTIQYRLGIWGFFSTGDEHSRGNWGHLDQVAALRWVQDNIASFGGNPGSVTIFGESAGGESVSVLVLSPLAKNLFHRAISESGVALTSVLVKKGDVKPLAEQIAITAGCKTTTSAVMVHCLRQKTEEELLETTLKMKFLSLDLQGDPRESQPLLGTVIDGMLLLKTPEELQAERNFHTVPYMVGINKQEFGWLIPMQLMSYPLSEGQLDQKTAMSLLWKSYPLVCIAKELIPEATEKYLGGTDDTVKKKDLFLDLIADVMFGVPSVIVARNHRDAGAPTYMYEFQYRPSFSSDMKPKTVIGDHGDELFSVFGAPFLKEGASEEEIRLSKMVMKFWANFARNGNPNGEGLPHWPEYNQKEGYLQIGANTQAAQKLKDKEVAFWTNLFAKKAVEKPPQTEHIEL
The experiment in a line: Inhibition of TGH.

The term IC50 denotes the midpoint of a concentration-inhibition curve. High values mean weaker potency, low ones greater potency. In the case of `O=C(CCCCCCc1ccccc1)c1nc(-c2ccncc2)co1`, the values for the Ratio IC50 in assay [1] and in assay [4] were 1500 and 5, respectively. The IC50 is > 100000 nM in assay [2], 140 nM in assay [3] and 700 nM against Liver carboxylesterase 1.
Taken in the same sequence, the figures for `O=C(CCCCCCc1ccccc1)c1nc(-c2ccccn2)co1` were 25, 330, > 100000 nM, 30 nM and 10000 nM.
As for `O=C(O)c1cnc(C(=O)CCCCCCc2ccccc2)o1`, the Ratio IC50 in assay [1] and in assay [4] was > 100 throughout. In addition, in assay [3], half-maximal inhibition (IC50) required 900 nM.
Consider `O=C(O)c1coc(C(=O)CCCCCCc2ccccc2)n1`, for which the Ratio IC50 in assay [1] is > 3000; in assay [4], 5. In addition, the IC50 in assay [2] is > 100000 nM; in assay [3] it was 500 nM; at Liver carboxylesterase 1, 2500 nM.
Taken in the same sequence, the figures for `N#Cc1coc(C(=O)CCCCCCc2ccccc2)n1` were > 700, 1.5, 30000 nM, 20 nM and 30 nM.
As for `O=C(CCCCCCc1ccccc1)c1nc(C(F)(F)F)co1`, the Ratio IC50 in assay [1] is > 200. Besides, the IC50 in assay [2] was determined as 10000 nM; in assay [3] it was 400 nM; against Liver carboxylesterase 1, 60 nM.
Take `O=C(CCCCCCc1ccccc1)c1ncc(C(F)(F)F)o1`: the values for the Ratio IC50 in assay [1] and in assay [4] were > 1400 and 3, respectively. The same molecule came in with an IC50 in assay [3] of 70 nM.
